Source: PMC9150124, “Design of a Potent, Selective, and Brain-Penetrant Inhibitor of Wnt-Deactivating Enzyme Notum by Optimization of a Crystallographic Fragment Hit” (Journal of Medicinal Chemistry, 2022)

How the values were obtained:
Experiment in all cases: SelectScreen kinase profiling, SSBK ZLyte SP Technology
Format in all cases: biochemical
[1] = target: kinase named in conditions (Homo sapiens, UniProt P21709); conditions: EPHA1, 10 μM
Experimental: (§1) Kinase selectivity screening was performed by Thermo Fisher Scientific (Paisley, U.K.) in their SelectScreen Biochemical Kinase Profiling Service. Assay information and data are presented in the Supporting Information.
(§2) Kinase selectivity screening was performed by ThermoFisher Scientific (Paisley, U.K.) in their SelectScreenTM
(§3) Biochemical Kinase Profiling service .

[2] = target: kinase named in conditions (Homo sapiens, UniProt Q9UL54); conditions: TAOK2 (TAO1), 10 μM
Sequence of kinase named in conditions (Homo sapiens, UniProt Q9UL54) (Q9UL54 whole entry): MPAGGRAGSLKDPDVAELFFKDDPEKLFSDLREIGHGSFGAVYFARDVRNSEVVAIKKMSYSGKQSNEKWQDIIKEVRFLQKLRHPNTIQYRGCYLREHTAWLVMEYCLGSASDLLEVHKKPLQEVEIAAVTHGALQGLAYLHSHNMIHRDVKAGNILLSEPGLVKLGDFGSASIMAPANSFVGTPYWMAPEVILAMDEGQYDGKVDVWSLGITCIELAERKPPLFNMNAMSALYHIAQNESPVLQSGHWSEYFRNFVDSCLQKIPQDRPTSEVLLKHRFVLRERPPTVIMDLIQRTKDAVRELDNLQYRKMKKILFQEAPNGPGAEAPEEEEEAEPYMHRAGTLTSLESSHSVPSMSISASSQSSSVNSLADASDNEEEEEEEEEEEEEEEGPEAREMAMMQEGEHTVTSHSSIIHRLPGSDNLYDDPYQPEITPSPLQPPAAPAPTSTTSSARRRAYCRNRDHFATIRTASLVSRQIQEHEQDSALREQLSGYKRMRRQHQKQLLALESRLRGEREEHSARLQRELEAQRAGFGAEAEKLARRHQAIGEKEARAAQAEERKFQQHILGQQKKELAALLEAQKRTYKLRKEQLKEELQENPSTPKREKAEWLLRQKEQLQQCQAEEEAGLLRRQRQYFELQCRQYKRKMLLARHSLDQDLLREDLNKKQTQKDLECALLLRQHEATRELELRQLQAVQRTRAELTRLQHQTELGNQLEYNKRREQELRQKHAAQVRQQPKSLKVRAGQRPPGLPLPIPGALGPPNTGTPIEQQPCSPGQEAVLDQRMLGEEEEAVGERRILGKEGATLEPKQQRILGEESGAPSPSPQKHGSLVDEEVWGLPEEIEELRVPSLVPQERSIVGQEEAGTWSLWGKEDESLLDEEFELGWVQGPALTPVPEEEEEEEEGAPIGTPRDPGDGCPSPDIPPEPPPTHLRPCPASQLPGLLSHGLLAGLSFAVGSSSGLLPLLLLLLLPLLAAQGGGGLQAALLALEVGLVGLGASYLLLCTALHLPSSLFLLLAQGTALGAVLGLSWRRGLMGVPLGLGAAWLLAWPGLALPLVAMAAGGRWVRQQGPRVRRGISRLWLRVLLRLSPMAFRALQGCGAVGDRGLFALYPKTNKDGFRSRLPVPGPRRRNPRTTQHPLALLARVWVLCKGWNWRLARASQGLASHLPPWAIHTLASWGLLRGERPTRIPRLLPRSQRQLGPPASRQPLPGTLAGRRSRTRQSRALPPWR
Experimental: as §1, §2, §3

[3] = target: kinase named in conditions (Homo sapiens, UniProt P00533, L858R); conditions: EGFR (ErbB1) L858R, 10 μM
Experimental: as §1, §2, §3

[4] = target: kinase named in conditions (Homo sapiens, UniProt P52564); conditions: MAP2K6 (MKK6), 10 μM
Sequence of kinase named in conditions (Homo sapiens, UniProt P52564) (P52564 whole entry): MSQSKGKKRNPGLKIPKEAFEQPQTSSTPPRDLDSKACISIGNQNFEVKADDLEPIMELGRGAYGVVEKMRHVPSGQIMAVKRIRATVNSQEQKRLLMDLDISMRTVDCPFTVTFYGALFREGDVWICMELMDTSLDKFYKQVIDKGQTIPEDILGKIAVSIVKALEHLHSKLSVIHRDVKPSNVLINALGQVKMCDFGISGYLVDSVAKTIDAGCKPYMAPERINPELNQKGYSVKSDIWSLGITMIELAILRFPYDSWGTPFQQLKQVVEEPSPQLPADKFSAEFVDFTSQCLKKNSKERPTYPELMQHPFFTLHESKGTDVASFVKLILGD
Experimental: as §1, §2, §3

[5] = target: kinase named in conditions (Homo sapiens, UniProt Q9UHD2); conditions: TBK1, 10 μM
Experimental: as §1, §2, §3

[6] = target: kinase named in conditions (Homo sapiens, UniProt P19784); conditions: CSNK2A2 (CK2 alpha 2), 10 μM
Experimental: as §1, §2, §3

[7] = target: kinase named in conditions (Homo sapiens, UniProt P07949, A883F); conditions: RET A883F, 10 μM
Experimental: as §1, §2, §3

[8] = target: kinase named in conditions (Homo sapiens, UniProt P10721, V559D/V654A); conditions: KIT V559D V654A, 10 μM
Experimental: as §1, §2, §3

[9] = target: kinase named in conditions (Homo sapiens, UniProt P53350); conditions: PLK1, 10 μM
Experimental: as §1, §2, §3

[10] = target: kinase named in conditions (Homo sapiens, UniProt O94806); conditions: PRKCN (PKD3), 10 μM
Experimental: as §1, §2, §3

[11] = target: kinase named in conditions (Homo sapiens, UniProt P07333); conditions: CSF1R (FMS), 10 μM
Sequence of kinase named in conditions (Homo sapiens, UniProt P07333) (P07333 20-972): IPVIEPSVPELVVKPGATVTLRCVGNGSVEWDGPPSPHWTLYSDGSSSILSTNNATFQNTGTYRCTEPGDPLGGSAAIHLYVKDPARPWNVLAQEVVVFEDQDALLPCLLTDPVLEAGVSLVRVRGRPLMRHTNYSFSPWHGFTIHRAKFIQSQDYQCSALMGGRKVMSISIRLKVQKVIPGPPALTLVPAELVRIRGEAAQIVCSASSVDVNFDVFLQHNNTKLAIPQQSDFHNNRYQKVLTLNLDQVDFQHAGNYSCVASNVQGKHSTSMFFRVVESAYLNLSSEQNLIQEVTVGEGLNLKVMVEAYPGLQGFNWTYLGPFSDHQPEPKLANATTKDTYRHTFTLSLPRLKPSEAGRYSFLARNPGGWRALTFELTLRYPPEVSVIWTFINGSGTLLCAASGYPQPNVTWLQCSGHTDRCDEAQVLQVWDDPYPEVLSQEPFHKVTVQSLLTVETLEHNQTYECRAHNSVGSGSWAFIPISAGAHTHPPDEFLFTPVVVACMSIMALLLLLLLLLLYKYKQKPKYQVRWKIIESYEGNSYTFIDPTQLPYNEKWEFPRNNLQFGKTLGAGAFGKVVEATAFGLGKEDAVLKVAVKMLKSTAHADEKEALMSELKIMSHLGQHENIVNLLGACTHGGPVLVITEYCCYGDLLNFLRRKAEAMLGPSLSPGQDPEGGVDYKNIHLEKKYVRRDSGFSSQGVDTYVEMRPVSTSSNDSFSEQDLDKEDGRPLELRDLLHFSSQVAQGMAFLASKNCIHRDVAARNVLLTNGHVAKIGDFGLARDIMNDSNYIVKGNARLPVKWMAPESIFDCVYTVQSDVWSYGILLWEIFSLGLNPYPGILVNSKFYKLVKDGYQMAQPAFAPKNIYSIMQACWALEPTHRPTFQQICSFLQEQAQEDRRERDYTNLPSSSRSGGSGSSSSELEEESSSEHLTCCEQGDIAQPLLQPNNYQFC
Experimental: as §1, §2, §3

[12] = target: kinase named in conditions (Homo sapiens, UniProt P00533, L858R/T790M); conditions: EGFR (ErbB1) T790M L858R, 10 μM
Experimental: as §1, §2, §3

[13] = target: kinase named in conditions (Homo sapiens, UniProt P00519, F317I); conditions: ABL1 F317I, 10 μM
Experimental: as §1, §2, §3

[14] = target: kinase named in conditions (Homo sapiens, UniProt P00533, T790M); conditions: EGFR (ErbB1) T790M, 10 μM
Experimental: as §1, §2, §3

[15] = target: kinase named in conditions (Homo sapiens, UniProt P36888, D835Y); conditions: FLT3 D835Y, 10 μM
Experimental: as §1, §2, §3

[16] = target: kinase named in conditions (Homo sapiens, UniProt P29376); conditions: LTK (TYK1), 10 μM
Experimental: as §1, §2, §3

[17] = target: kinase named in conditions (Homo sapiens, UniProt P22607, V555M); conditions: FGFR3 V555M, 10 μM
Experimental: as §1, §2, §3

[18] = target: kinase named in conditions (Homo sapiens, UniProt P00533, G719C); conditions: EGFR (ErbB1) G719C, 10 μM
Experimental: as §1, §2, §3

[19] = target: kinase named in conditions (Homo sapiens, UniProt P07947); conditions: YES1, 10 μM
Experimental: as §1, §2, §3

[20] = target: kinase named in conditions (Homo sapiens, UniProt P51817); conditions: PRKX, 10 μM
Experimental: as §1, §2, §3

[21] = target: kinase named in conditions (Homo sapiens, UniProt P06493); conditions: CDK1/cyclin B, 10 μM
Sequence of kinase named in conditions (Homo sapiens, UniProt P06493) (P06493 whole entry): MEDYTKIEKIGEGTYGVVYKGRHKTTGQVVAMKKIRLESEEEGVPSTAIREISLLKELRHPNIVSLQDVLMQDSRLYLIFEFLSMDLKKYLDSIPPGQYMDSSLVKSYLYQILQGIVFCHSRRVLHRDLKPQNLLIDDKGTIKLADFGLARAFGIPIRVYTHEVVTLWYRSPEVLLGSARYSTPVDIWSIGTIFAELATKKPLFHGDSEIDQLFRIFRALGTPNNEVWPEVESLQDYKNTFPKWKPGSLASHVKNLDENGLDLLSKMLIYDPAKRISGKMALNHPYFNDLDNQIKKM
Experimental: as §1, §2, §3

[22] = target: kinase named in conditions (Homo sapiens, UniProt P51451); conditions: BLK, 10 μM
Experimental: as §1, §2, §3

[23] = target: kinase named in conditions (Homo sapiens, UniProt Q16620); conditions: NTRK2 (TRKB), 10 μM
Experimental: as §1, §2, §3

[24] = target: kinase named in conditions (Homo sapiens, UniProt Q16539); conditions: 10 μM
Sequence of kinase named in conditions (Homo sapiens, UniProt Q16539) (Q16539 whole entry): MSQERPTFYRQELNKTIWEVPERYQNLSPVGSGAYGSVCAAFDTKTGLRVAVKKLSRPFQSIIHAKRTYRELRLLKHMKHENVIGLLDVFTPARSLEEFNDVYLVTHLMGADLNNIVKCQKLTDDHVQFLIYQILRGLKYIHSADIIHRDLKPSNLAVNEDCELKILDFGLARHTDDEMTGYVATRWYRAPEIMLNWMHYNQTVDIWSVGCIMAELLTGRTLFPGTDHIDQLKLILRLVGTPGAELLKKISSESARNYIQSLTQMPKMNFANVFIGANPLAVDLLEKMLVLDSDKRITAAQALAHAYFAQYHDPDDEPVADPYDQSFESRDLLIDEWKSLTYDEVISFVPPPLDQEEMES
Experimental: as §1, §2, §3

[25] = target: kinase named in conditions (Homo sapiens, UniProt O75582); conditions: RPS6KA5 (MSK1), 10 μM
Experimental: as §1, §2, §3

[26] = target: kinase named in conditions (Homo sapiens, UniProt P10721, T670I); conditions: KIT T670I, 10 μM
Experimental: as §1, §2, §3

[27] = target: kinase named in conditions (Homo sapiens, UniProt Q96PF2); conditions: STK22B (TSSK2), 10 μM
Experimental: as §1, §2, §3

[28] = target: kinase named in conditions (Homo sapiens, UniProt Q13177); conditions: PAK2 (PAK65), 10 μM
Sequence of kinase named in conditions (Homo sapiens, UniProt Q13177) (Q13177 whole entry): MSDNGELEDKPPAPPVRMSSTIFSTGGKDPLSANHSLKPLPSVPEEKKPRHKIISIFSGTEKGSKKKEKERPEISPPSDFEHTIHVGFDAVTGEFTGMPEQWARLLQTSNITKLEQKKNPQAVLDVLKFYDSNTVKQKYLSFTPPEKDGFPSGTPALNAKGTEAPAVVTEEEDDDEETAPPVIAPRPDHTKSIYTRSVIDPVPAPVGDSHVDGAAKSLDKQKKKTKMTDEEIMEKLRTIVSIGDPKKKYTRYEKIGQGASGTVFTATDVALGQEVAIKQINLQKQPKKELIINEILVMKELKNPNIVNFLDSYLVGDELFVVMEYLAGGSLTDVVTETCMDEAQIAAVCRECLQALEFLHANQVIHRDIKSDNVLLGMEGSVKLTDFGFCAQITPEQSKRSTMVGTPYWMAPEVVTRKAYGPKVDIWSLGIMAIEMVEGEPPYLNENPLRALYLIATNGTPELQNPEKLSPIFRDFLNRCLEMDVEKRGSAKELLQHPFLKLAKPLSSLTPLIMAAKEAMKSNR
Experimental: as §1, §2, §3

[29] = target: kinase named in conditions (Homo sapiens, UniProt Q15303); conditions: ERBB4 (HER4), 10 μM
Experimental: as §1, §2, §3

[30] = target: kinase named in conditions (Homo sapiens, UniProt Q86V86); conditions: PIM3, 10 μM
Experimental: as §1, §2, §3

[31] = target: kinase named in conditions (Homo sapiens, UniProt Q9Y463); conditions: DYRK1B, 10 μM
Experimental: as §1, §2, §3

[32] = target: kinase named in conditions (Homo sapiens, UniProt P08581); conditions: MET (cMet), 10 μM
Experimental: as §1, §2, §3

[33] = target: kinase named in conditions (Homo sapiens, UniProt P42685); conditions: FRK (PTK5), 10 μM
Experimental: as §1, §2, §3

Sequence of kinase named in conditions (Homo sapiens, UniProt P21709) (P21709 26-976): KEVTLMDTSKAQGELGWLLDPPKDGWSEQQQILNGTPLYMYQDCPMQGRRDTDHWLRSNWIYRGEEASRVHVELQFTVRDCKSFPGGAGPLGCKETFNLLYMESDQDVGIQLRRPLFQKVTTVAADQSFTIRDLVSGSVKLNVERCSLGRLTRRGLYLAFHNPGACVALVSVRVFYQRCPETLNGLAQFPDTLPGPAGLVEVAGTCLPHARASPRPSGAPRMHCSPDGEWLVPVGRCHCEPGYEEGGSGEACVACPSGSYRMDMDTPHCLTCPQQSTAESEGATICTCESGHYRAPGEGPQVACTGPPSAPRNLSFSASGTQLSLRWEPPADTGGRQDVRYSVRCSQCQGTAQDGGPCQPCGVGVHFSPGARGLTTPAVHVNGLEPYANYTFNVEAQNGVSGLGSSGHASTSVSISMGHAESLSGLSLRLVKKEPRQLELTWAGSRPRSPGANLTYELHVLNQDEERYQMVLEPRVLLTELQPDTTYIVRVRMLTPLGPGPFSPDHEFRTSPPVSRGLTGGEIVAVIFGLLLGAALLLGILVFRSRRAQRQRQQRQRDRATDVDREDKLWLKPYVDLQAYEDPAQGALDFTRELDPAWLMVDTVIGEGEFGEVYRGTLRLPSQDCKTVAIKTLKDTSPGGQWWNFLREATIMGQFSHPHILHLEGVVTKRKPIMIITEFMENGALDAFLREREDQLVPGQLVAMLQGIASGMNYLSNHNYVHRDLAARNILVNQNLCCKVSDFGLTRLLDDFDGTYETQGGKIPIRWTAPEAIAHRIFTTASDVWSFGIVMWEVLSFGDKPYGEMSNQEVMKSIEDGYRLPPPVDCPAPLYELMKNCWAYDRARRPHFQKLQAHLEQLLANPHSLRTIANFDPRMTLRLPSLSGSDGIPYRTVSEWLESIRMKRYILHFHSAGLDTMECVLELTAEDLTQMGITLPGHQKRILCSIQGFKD

**Q.** `FC(F)(F)c1c(Cl)ccc(-n2ccnn2)c1Cl` [8l, 1-(2,4-Dichloro-3-(trifluoromethyl)phenyl)-1H-1,2,3-triazole] was tested. Which inhibition at 10 µM [1] did it give?
**A.** 4%

**Q.** What about the inhibition at 10 µM [2] of the same compound?
**A.** -8%

**Q.** What about the inhibition at 10 µM [3] of the same compound?
**A.** 2%

**Q.** What about the inhibition at 10 µM [4] of the same compound?
**A.** 3%

**Q.** And the inhibition at 10 µM [5]?
**A.** 0%

**Q.** And the inhibition at 10 µM [6]?
**A.** 17%

**Q.** What about the inhibition at 10 µM [7] of the same compound?
**A.** 10%

**Q.** What about the inhibition at 10 µM [8] of the same compound?
**A.** 1%

**Q.** And the inhibition at 10 µM [9]?
**A.** 13%

**Q.** And the inhibition at 10 µM [10]?
**A.** 6%

**Q.** And the inhibition at 10 µM [11]?
**A.** 6%

**Q.** And the inhibition at 10 µM [12]?
**A.** 12%

**Q.** What about the inhibition at 10 µM [13] of the same compound?
**A.** 13%

**Q.** What about the inhibition at 10 µM [14] of the same compound?
**A.** 9%

**Q.** And the inhibition at 10 µM [15]?
**A.** 3%

**Q.** What about the inhibition at 10 µM [16] of the same compound?
**A.** 4%

**Q.** And the inhibition at 10 µM [17]?
**A.** -14%

**Q.** And the inhibition at 10 µM [18]?
**A.** 5%

**Q.** And the inhibition at 10 µM [19]?
**A.** 3%

**Q.** And the inhibition at 10 µM [20]?
**A.** 6%

**Q.** And the inhibition at 10 µM [21]?
**A.** 4%

**Q.** And the inhibition at 10 µM [22]?
**A.** 2%

**Q.** And the inhibition at 10 µM [23]?
**A.** 5%

**Q.** And the inhibition at 10 µM ([24]; MAPK14 (p38 alpha) Direct)?
**A.** -3%

**Q.** What about the inhibition at 10 µM ([24]; MAPK14 (p38 alpha)) of the same compound?
**A.** -1%

**Q.** What about the inhibition at 10 µM [25] of the same compound?
**A.** 9%

**Q.** And the inhibition at 10 µM [26]?
**A.** 10%

**Q.** And the inhibition at 10 µM [27]?
**A.** -2%

**Q.** And the inhibition at 10 µM [28]?
**A.** 5%

**Q.** What about the inhibition at 10 µM [29] of the same compound?
**A.** 1%

**Q.** What about the inhibition at 10 µM [30] of the same compound?
**A.** 6%

**Q.** And the inhibition at 10 µM [31]?
**A.** 16%

**Q.** What about the inhibition at 10 µM [32] of the same compound?
**A.** 8%

**Q.** What about the inhibition at 10 µM [33] of the same compound?
**A.** 1%
